Values joined by “and” are separate entries in the source; they are usually repeats but may differ in a detail not shown here. Equal entries are not always repeated. Structures can show the parent of a compound that is named as a salt. Where two headings read alike, the source gives them in different places.
What was measured:
cdk2/cyclin E = target: T1, cdk2/cyclin E (Homo sapiens, UniProt P24941); test: Cyclin-Dependent Kinase 2 Assay (cdk-2 inhibition); assay type: biochemical; conditions: GST-Rb substrate, 30 min at 30° C.
T1 construct: made in house; host or cells: insect cells (baculovirus co-infection)
Procedure: (§1) The transformed bacteria were grown overnight to saturation, then diluted in YT broth and incubated at 37° C. for 2 h. The protein was induced by incubation with 0.1 mM isopropylthioglycoside for 3 h. Following sedimentation by centrifugation, the cells were lysed by sonication in STE buffer ([…] NaCl, 10 mM Tris, pH 8.0, 1 mM EDTA) containing 10% sarkosyl. Particulate matter was removed by centrifugation and the lysate was incubated with glutathione-Sepharose at 4° C. The beads were washed with kinase buffer and then quantitation of Coomassie blue-stained proteins separated by SDS-PAGE was performed using a protein standard of known concentration.
(§2) Pre-wet Millipore Multiscreen 96-well filter plates (0.65 μm Durapore filters) with 200 μl kinase buffer (50 mM HEPES, pH 7.5, 10 mM MgCl2, 1 mM EGTA). GST-Rb (0.5 μg) bound to glutathione-Sepharose beads is added in 50 μl per well and the solution removed by application of vacuum. […] Add 0.1 μg cdk4/cyclin D1 (insect cell lysate) to initiate assay. Incubate 30 min at 37° C. Terminate reaction by filtration on Millipore Vacuum Manifold. Wash four times with TNEN (20 mM Tris, pH 8.0, 100 mM Na Cl, 1 mM EDTA, 0.5% nonidet P-40). After drying the plates at room temperature, the filter plates were placed in adapter plates (Packard) and 40 μl of Microscint-O® (Packard) was added to each well. Top Seal A film was used to cover the plates before counting in a Top Count Scintillation Counter.
GST-Rb as described above for cdk4/cyclin D1
Assay conditions for cdk2/cyclin E were identical to those for cdk4/cyclin D1 including the substrate. The concentration of recombinant cdk2/cyclin E in the assay was 0.1 μg per 100 μl assay. Incubation was for 30 min at 30° C.

cdk4/cyclin D1 = target: T2, cdk4/cyclin D1 (Homo sapiens, UniProt P11802); test: Cyclin-dependent kinase 4 Assay; assay type: biochemical; conditions: cdk4/cyclin D1, GST-Rb substrate, 10 μM ATP, 30 min at 37° C.; read-out: CDK4 Inhibition IC50
T2 construct: made in house; host or cells: Sf9 insect cells (Bac-to-Bac baculovirus, pFastBac)
Procedure: The IC50 values for cdk-4 inhibition were by the following method:
as §1
The cDNA for human cyclin D1 was cloned by RT PCR using […] from MCF-7 cells. […] Bacmid DNA was used to transfect Sf9 insect cells to produce recombinant virus. Following plaque purification of the virus, the viral preparations were amplified until high titer stocks were acheived.
Lysates were prepared by lysis of Sf9 cells coinfected with cdk4 and cyclin D1 in 50 mM HEPES, pH 7.5, 10 mM MgCl2, 1 mM DTT, 0.1 mM phenylmethylsulfonyl fluoride, 5 μg/ml aprotinin, and 5 μg/ml leupeptin using a PARR bomb under 500 p.s.i nitrogen pressure for 5 min at 4° C. Insoluble material was sedimented at 10,000×g for 20 min at 4° C. Glycerol was added to the supernatant to 10% and stored at −80° C. in aliquots.
as §2

MDA-MB-231 = test: In vitro tumor cell proliferation, MDA-MB-231; assay type: cell-based, human; conditions: read-out: In vitro Tumor Cell Proliferation (IC50, μM) Breast MDA-MB-231
Procedure: (§3) The proliferation of tumor cells was measured using a sulforhodamine B assay as described in Skehan, P., et al., J. Natl. Cancer Inst. […] Tumor cells were harvested with trypsin-EDTA, cells that excluded trypan blue were counted, added to 96-well plates and incubated overnight at 37° C. Drug was added to the wells following dilution in culture medium. Three days later, the medium was removed and replenished with medium containing fresh drug and incubated an additional 4 days. The cells were then fixed with 0.1 ml 10% trichloroacetic acid for 60 min at 4° C. The plates were rinsed five times with tap water, air-dried and stained for 30 min with 0.4% sulforhodamine B in 1% acetic acid and air-dried.
(§4) Alternatively, the CyQUANT cell proliferation assay was used to quantify tumor cell proliferation. Tumor cells were harvested with trypsin-EDTA, cells that excluded trypan blue were counted, added to 96-well plates and incubated overnight at 37° C. Drug was added to the wells following dilution in culture medium. Three days later the medium was removed and the plates frozen at −80° C. for at least 30 minutes.

MDA-MB-435 = test: In vitro tumor cell proliferation, MDA-MB-435; assay type: cell-based, human; conditions: read-out: In vitro Tumor Cell Proliferation (IC50, μM) Breast MDA-MB-435
Procedure: as §3, §4

HT-29 = test: In vitro tumor cell proliferation, HT-29; assay type: cell-based, human; conditions: read-out: In vitro Tumor Cell Proliferation (IC50, μM) Colon HT-29 (converted)
Procedure: as §3, §4
HT-29 is a human colon adenocarcinoma, moderately well-differentiated grade II (HTB 38);

Colo-205 = test: In vitro tumor cell proliferation, Colo-205; assay type: cell-based, human; conditions: read-out: In vitro Tumor Cell Proliferation (IC50, μM) Colon Colo-205
Procedure: as §3, §4

A549 = test: In vitro tumor cell proliferation, A549; assay type: cell-based, human; conditions: read-out: In vitro Tumor Cell Proliferation (IC50, μM) Lung A549
Procedure: as §3, §4

DMS-114 = test: In vitro tumor cell proliferation, DMS-114; assay type: cell-based, human; conditions: read-out: In vitro Tumor Cell Proliferation (IC50, μM) Lung DMS-114
Procedure: as §3, §4

PC-3 = test: In vitro tumor cell proliferation, PC-3; assay type: cell-based, human; conditions: read-out: In vitro Tumor Cell Proliferation (IC50, μM) Prostate PC-3
Procedure: as §3, §4

DU 145 = test: In vitro tumor cell proliferation, DU 145; assay type: cell-based, human; conditions: read-out: In vitro Tumor Cell Proliferation (IC50, μM) Prostate DUI45
Procedure: as §3, §4

[1] = Homo sapiens, MDA-MB-231, values marked * (mark not explained)
[2] = Homo sapiens, MDA-MB-435, values marked * (mark not explained)
[3] = Homo sapiens, HT-29, values marked * (mark not explained)
[4] = Homo sapiens, COLO 205, values marked * (mark not explained)
[5] = values marked * (mark not explained), dihydrochloride
[6] = Homo sapiens, A549, values marked * (mark not explained)
[7] = Homo sapiens, DMS-114, values marked * (mark not explained)
[8] = Homo sapiens, PC-3, values marked * (mark not explained)
[9] = Homo sapiens, DU-145, values marked * (mark not explained)

T2 sequence (P11802 whole entry): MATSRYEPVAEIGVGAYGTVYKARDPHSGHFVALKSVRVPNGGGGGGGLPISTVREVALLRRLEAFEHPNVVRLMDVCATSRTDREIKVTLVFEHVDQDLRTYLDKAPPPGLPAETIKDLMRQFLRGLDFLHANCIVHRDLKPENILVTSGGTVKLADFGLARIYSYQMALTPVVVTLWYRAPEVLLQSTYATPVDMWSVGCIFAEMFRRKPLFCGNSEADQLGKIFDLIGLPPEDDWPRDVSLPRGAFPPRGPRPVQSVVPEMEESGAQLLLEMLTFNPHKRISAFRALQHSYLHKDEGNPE
T2 sequence (P24385 whole entry partner): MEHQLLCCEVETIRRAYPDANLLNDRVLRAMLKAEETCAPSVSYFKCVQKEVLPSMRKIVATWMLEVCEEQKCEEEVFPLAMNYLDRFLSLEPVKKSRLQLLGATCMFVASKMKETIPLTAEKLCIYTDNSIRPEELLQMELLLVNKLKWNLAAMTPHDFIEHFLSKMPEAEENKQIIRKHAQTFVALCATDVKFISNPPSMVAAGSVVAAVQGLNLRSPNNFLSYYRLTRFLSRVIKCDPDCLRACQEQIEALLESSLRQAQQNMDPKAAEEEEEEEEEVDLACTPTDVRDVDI

| SMILES | IC50 (cdk2/cyclin E) | IC50 (cdk4/cyclin D1) | IC50 (MDA-MB-231; [1]) | IC50 (MDA-MB-435; [2]) | IC50 (HT-29; [3]) | IC50 (Colo-205; [4]) | IC50 (Colo-205; [5]) | IC50 (A549; [6]) | IC50 (A549; [5]) | IC50 (DMS-114; [7]) | IC50 (DMS-114; [5]) | IC50 (PC-3; [8]) | IC50 (PC-3; [5]) | IC50 (DU 145; [9]) | IC50 (MDA-MB-231; [5]) | IC50 (MDA-MB-435; [5]) | IC50 (DU 145; [5]) | IC50 (HT-29; [5]) |
| --- | --- | --- | --- | --- | --- | --- | --- | --- | --- | --- | --- | --- | --- | --- | --- | --- | --- | --- |
| CC(CCCC(C)(C)O)Nc1nc(N[C@H]2CC[C@H](N)CC2)nc2c1ncn2C1CCCC1 (relative stereo) [Example 54, 2-[Trans-(4-aminocyclohexyl)amino]-6-[(5-hydroxy-1,5-dimethylhexyl)amino]-9-cyclopentylpurine dihydrochloride] | 85 nM | 2000 nM and 1200 nM | 1 µM | 1.6 µM | 1 µM | 0.63 µM | 0.58 µM | 0.68 µM | 0.63 µM | 0.78 µM | 0.61 µM | 0.83 µM | 0.8 µM | 1.4 µM | – | – | – | – |
| NCCCCNc1nc(N[C@H]2CC[C@H](N)CC2)nc2c1ncn2C1CCCC1 [Example 5, 2-[Trans-(4-aminocyclohexyl)amino]-6-[(4-aminobutyl)amino]-9-cyclopentylpurine dihydrochloride] | 42 nM | 290 nM and 380 nM | 2.9 µM | 5.7 µM | – | 2.4 µM | 1.6 µM | 1.6 µM | 1.1 µM | 3.1 µM | 2.8 µM | 5.7 µM | 7.2 µM | 2.4 µM | 3.2 µM | 4.4 µM | 2.8 µM | – |
| N[C@H]1CC[C@H](Nc2nc(NCCc3cccnc3)c3ncn(C4CCCC4)c3n2)CC1 [Example 7, 2-[Trans-(4-aminocyclohexyl)amino]-6-[(3-pyridyl)-2-ethylamino]-9-cyclopentylpurine dihydrochloride] | 60 nM | 300 nM | 7.9 µM | 11 µM | – | 6.3 µM | 7.8 µM | 15 µM | – | 16 µM | 24 µM | 8 µM | 4.6 µM | 10 µM | 7 µM | – | 9 µM | – |
| N[C@H]1CC[C@H](Nc2nc(NCc3ccncc3)c3ncn(C4CCCC4)c3n2)CC1 [Example 8, 2-[Trans-(4-aminocyclohexyl)amino]-6-[(4-pyridyl)methylamino]-9-cyclopentylpurine dihydrochloride] | 110 nM | 700 nM and 800 nM | 5.3 µM | 10 µM | 7.6 µM | 4.6 µM | 4.1 µM | 7.7 µM | 5.9 µM | 9.9 µM | 7.4 µM | 4.6 µM | 5.4 µM | 5.8 µM | 8.1 µM | – | 6.5 µM | 11 µM |
| N[C@H]1CC[C@H](Nc2nc(NCc3nc4ccccc4[nH]3)c3ncn(C4CCCC4)c3n2)CC1 [Example 19, 2-[Trans-(4-aminocyclohexyl)amino]-6-[(2-benzimidazolyl)methylamino]-9-cyclopentylpurine dihydrochloride] | 350 nM | 50 nM and 100 nM | 1.9 µM | 2.7 µM | 2.7 µM | 1.3 µM | 1.4 µM | – | – | 2.7 µM | 2.9 µM | 1.2 µM | 1.5 µM | 6.4 µM | 1.7 µM | 2.3 µM | 6.1 µM | 2 µM |
| CCCCCNc1nc(N[C@H]2CC[C@H](N)CC2)nc2c1ncn2C1CCCC1 [Example 26, 2-[Trans-(4-aminocyclohexyl)amino]-6-(pentylamino)-9-cyclopentylpurine dihydrochloride] | 80 nM and 36 nM | 510 nM and 460 nM | 1.2 µM | 2.2 µM | 1.4 µM | 1.3 µM | 1.5 µM | – | – | 1.8 µM | 1 µM | 1 µM | 1.4 µM | 0.73 µM | 1.4 µM | 2.3 µM | 0.95 µM | 1.6 µM |
| N[C@H]1CC[C@H](Nc2nc(NCCCO)c3ncn(C4CCCC4)c3n2)CC1 [Example 53, 2-[Trans-(4-aminocyclohexyl)amino]-6-[(3-hydroxypropyl)amino]-9-cyclopentylpurine dihydrochloride] | 13 nM and 26 nM | 290 nM and 94 nM and 75 nM | 6.7 µM | 12 µM | – | 5.1 µM | 5 µM | 12 µM | 9.3 µM | 16 µM | 17 µM | 3.4 µM | 5.9 µM | 7.5 µM | 8.5 µM | 11 µM | 11 µM | – |
| NCCCCCCCCNc1nc(N[C@H]2CC[C@H](N)CC2)nc2c1ncn2C1CCCC1 [Example 56, 2-[Trans-(4-amninocyclohexyl)amino]-6-[(8-aminooctyl)amino]-9-cyclopentylpurine dihydrochloride] | 115 nM | 860 nM | 2.2 µM | 3.8 µM | 2.5 µM | 3.5 µM | 6.3 µM | 2.8 µM | 2.5 µM | – | – | 2.7 µM | 4.4 µM | 4.9 µM | 3.5 µM | 3.1 µM | 3.6 µM | 3.4 µM |

Reference: patent US6413974B1, “6,9,-disubstituted 2-[trans-(4-aminocyclohexyl) amino] purines” (Aventis Pharmaceuticals Inc., priority 1998, dated 2002)
